Experiments:
[1] = tested on: HUMAN RSV-A (“LONG” STRAIN); assay: RSV-A assay (CPE, ATPlite) in Hep-2 cells; type: cell-based; settings: human respiratory syncytial virus, 120 h, MOI 0.1, 5-day incubation
Text: Methods for RSV-A Assay Hep-2 cells, (originally derived from tumors grown in irradiated-cortisonised weanling rats that had been injected with epidermoid carcinoma tissue from the larynx of a person, but later found to be indistinguishable from HeLa cells by PCR DNA analysis), were used for the culturing of genotype A, “Long” strain RSV. Flasks were inoculated with RSV and viral stocks were collected once cytopathic effect (CPE) was greater than 90%. Viral stocks in 25% sucrose media were snap frozen using liquid nitrogen to increase viral stability. Viral stock titers were quantified by tissue culture infectious dose 50% (TCID50) using 8,000 cells per well and 3-fold viral dilutions across a 96-well plate, cultured for 4 days. Viral stock titers were also quantified by a plaque forming unit assay, as described elsewhere.
Following extensive parameter testing, the final assay is run as follows: Hep-2 cells are seeded into the inner 60 wells of a 96-well plate at 8,000 cells per well in a volume of 50 μL using Growth Media (DMEM without phenol red, 1% L-Glut, 1% Penn/Strep, 1% nonessential amino acids, 10% heat-inactivated FBS). 2-fold serial dilutions of control and test compounds are added to the wells in duplicate in a total volume of 25 μL. Viral stock is then added to the wells at a multiplicity of infection (MOI) of 0.1 in a volume of 25 μL, bringing the total volume of each well to 100 μL. The MOI is calculated using the PFU/mL, or TCID50 if unavailable. Each 96-well plate has a control column of 6 wells with cells and virus but no compound (negative control, max CPE), a column with cells but no compound or virus (positive control, minimum CPE), and a column with no cells or virus or compound (background plate/reagent control). The control wells with cells but no virus are given an additional 25 μL of growth media containing an equal quantity of sucrose as those wells receiving the viral stock in order to keep consistent in media and volume conditions. The outer wells of the plate are filled with 125 μL of moat media (DMEM, 1% Penn/Strep) to act as a thermal and evaporative moat around the test wells. Following a 5-day incubation period, the plates are read using ATPlite (50 uL added per well), which quantifies the amount of ATP (a measure of cell health) present in each well. Assay plates are read using the Envision luminometer. […] EC50 ranges are as follows: A<0.2 μM; B>0.2 μM.

hMPV A2 TN/94-49 = assay: HMPV antiviral assay Method 2 (LLC-MK2 cells with CP-100-356, ATP-Lite); type: cell-based; settings: hMPV A2 TN/94-49, LLC-MK2 cells, 4 μM CP-100-356, Method 2
Procedure: In vitro HMPV antiviral activity was evaluated using the clinical isolate A2 strain TN 94-49 (obtained from Dr. John Williams, Vanderbilt University, Tennessee) and LLC-MK2 cells (Millipore Sigma CB_85062804), an immortalized kidney epithelial cell line from Macaca mulatta. Compounds were resuspended in dimethyl sulfoxide (DMSO) at 10 mM, serially diluted and added to a 384-well source plate. Subsequently, the compounds were diluted and transferred onto 384-well assay plates using the Echo-650 automated liquid handling system (Beckman Coulter, Indiana). The test compounds were assessed in duplicate at a top concentration of 200 nM followed by 2.5-fold serial dilutions to give a total of 10 concentration points. DMSO control wells were also included on the assay plates and were either infected or not, acting as positive and negative controls. A2 TN 94-49 virus infections were performed in-suspension with LLC-MK2 cells. The cells were washed twice with PBS and removed from the cell-culture flask with 0.25% trypsin-EDTA (Thermo Fisher Scientific, MA). The trypsin-EDTA was inactivated by resuspending in 2% fetal bovine serum (FBS) and OptiMEM (ThermoFisher Scientific, MA) containing 1% antibiotic-antimycotic. Cells were pelleted by centrifuging for 5 minutes at 800 rpm, the supernatant was removed, and cells were re-suspended and washed in PBS plus 100 μg/mL CaCl2). This step was performed twice. Cells were then re-suspended in serum-free (SF)-OptiMEM containing 4 μg/mL TPCK-Trypsin (Sigma Aldrich, MO), 1% antibiotic-antimycotic (ThermoFisher Scientific, MA), 100 μg/mL CaCl2), and 4 μM of CP-100-356, a P-glycoprotein inhibitor. Cells were counted and seeded at a density of 5,000 cells/well, 12.5 μL/well. Virus infections were done at a multiplicity of infection (MOI) of 0.16 with 12.5 μL added per well. Virus infections were performed in infection media which contained SF-OptiMEM, 100 μg/mL CaCl2) and 1% antibiotic-antimycotic. HMPV viral stocks are suspended in infection media+5% glycerol, thus an equal volume of infection media+5% glycerol was added to uninfected wells to equalize the final % glycerol across all wells of the assay plate. The final concentration of TPCK-trypsin was 2 μg/mL. The final concentration of CP-100-356 was 2 μM. The assay plates were incubated at 37° C., 5% CO2 for 7 days. After 7 days incubation, 12.5 μL of ATP-Lite (PerkinElmer, MA) was added to each well and the raw luminescence values were determined using the Envision 2104 (Perkin Elmer, MA). The average of the raw luminescence values for the cells and virus only positive control wells was subtracted from all conditions tested and the percent cell health was determined by dividing these values by the average of the cells only negative control wells. EC50 values were then calculated by non-linear regression using a four-parameter curve logistic equation. The curve fit model employed was XLFit Dose Response One Site Model 200: y=(A+(B/(1+((x/C)^D)))), where A is the minimum y value, B is the maximum y value, C is the log EC50value, and D is the slope factor.

Compound | EC50 [1] [nM] | EC50 (hMPV A2 TN/94-49) [nM]
COc1cc(C(=O)NC[C@@](O)(c2ccccc2)c2cc3c(c(-c4cccc(Cl)c4Cl)n2)OC[C@]3(C)C(N)=O)cc2oc(C3CC3)nc12 [Example 96] | < 200 | < 200
C[C@]1(C(N)=O)COc2c1cc([C@@](O)(CNC(=O)c1ccc3nc(C4CC4)oc3c1)c1ccccc1)nc2-c1cc(C(F)(F)F)c(F)cc1F [Example 307] | < 200 | > 200
COc1cccc([C@](O)(CNC(=O)c2cc(OC)c3nn(C4CC4)cc3c2)c2cc3c(c(-c4cccc(Cl)c4Cl)n2)OC[C@]3(C)C(N)=O)n1 [Example 496] | < 200 | < 200
COc1cc(C(=O)NC[C@](O)(c2cccc(F)c2)c2cc3c(c(-c4ccc(C(C)(C)O)cc4)n2)OC[C@]3(C)C(N)=O)cc2cn(C3(F)CC3)nc12 [Example 398] | > 200 | > 200
C[C@]1(C(N)=O)COc2c1cc([C@@](O)(CNC(=O)c1cc(OC3CC3)c3nn(C4(F)CC4)cc3c1)c1cccc(F)c1)nc2-c1cccc(Cl)c1Cl [Example 339] | < 200 | < 200
COc1cc(C(=O)NC[C@@](O)(c2ccccc2)c2cc3c(c(-c4cc(Cl)c(F)cc4F)n2)OC[C@]3(C)C(N)=O)cc2oc(N)nc12 [Example 237] | < 200 | < 200
COc1cc(C(=O)NCC(O)(c2cc3c(c(-c4cc(Cl)c(F)cc4F)n2)OC[C@]3(C)C(N)=O)c2ccc(Cl)s2)cc2cn(C3CC3)nc12 (stereo partly drawn) [Example 472] | < 200 | > 200
[2H]C([2H])([2H])NC(=O)[C@@]1(C)COc2c1cc([C@@](O)(CNC(=O)c1cc(OC)c3nc(C4CC4)oc3c1)c1ccccc1)nc2-c1cc(Cl)c(F)cc1F [Example 110] | < 200 | < 200
COc1cc(C(=O)NC[C@@](O)(c2cccc(F)c2)c2cc3c(c(-c4cc(C(F)(F)F)c(F)cc4F)n2)OC[C@]3(C)C(N)=O)cc2cn(C(F)F)nc12 [Example 301] | < 200 | < 200
COc1cc(C(=O)NC[C@@](O)(c2cccc(S(N)(=O)=O)c2)c2cc3c(c(-c4cc(Cl)c(F)cc4F)n2)OC[C@]3(C)C(N)=O)cc2cn(C3CC3)nc12 [Example 486] | < 200 | > 200
C[C@]1(C(N)=O)COc2c1cc([C@@](O)(CNC(=O)c1cc(Cl)c3nn(C4CC4)cc3c1)c1ccccc1)nc2-c1cc(Cl)c(F)cc1F [Example 99] | < 200 | < 200
COc1cc(C(=O)NC[C@@](O)(c2cccc(F)n2)c2cc3c(c(-c4ccc(F)c(Cl)c4Cl)n2)OC[C@]3(C)C(N)=O)cc2cn(C3CC3)nc12 [Example 340] | < 200 | < 200
C[C@]1(C(N)=O)COc2c1cc([C@@](O)(CNC(=O)c1cc(OC3CC3)c3ncc(Cl)cc3c1)c1ccccc1)nc2-c1ccc(F)c(Cl)c1Cl [Example 313] | < 200 | < 200
COc1cc(C(=O)NC[C@@](O)(c2ccccc2)c2cc3c(c(-c4cc(C(F)(F)F)c(F)cc4F)n2)OC[C@]3(C)C(N)=O)cc2oc(C3CC3)nc12 [Example 305] | < 200 | < 200
COc1cc(C(=O)NC[C@@](O)(c2ccccc2)c2cc3c(c(-c4cccc(Cl)c4Cl)n2)OC[C@]3(C)C(N)=O)cc2oc(C)nc12 [Example 95] | < 200 | < 200
COc1cc(C(=O)NC[C@@](O)(c2cccc(F)c2)c2cc3c(c(-c4ccc(C(C)(C)O)cc4)n2)OC[C@]3(C)C(N)=O)cc2cn(C3(F)CC3)nc12 [Example 397] | > 200 | > 200
COc1cc(C(=O)NC[C@@](O)(c2ccccc2)c2cc3c(c(-c4ccc(S(C)(=O)=O)cc4F)n2)OC[C@]3(C)C(N)=O)cc2cn(C3(F)CC3)nc12 [Example 371] | < 200 | > 200
COc1cc(C(=O)NC[C@@](O)(c2cccc(Cl)n2)c2cc3c(c(-c4cc(Cl)c(F)cc4F)n2)OC[C@]3(C)C(N)=O)cc2cn(C3CC3)nc12 [Example 489] | < 200 | < 200
COc1cc(C(=O)NC[C@@](O)(c2cc[nH]c(=O)c2)c2cc3c(c(-c4cc(Cl)c(F)cc4F)n2)OC[C@]3(C)C(N)=O)cc2cn(C3CC3)nc12 [Example 504] | < 200 | > 200
COc1cc(C(=O)NC[C@@](O)(c2ccccc2)c2cc3c(c(-c4cc(C(F)F)c(F)cc4F)n2)OC[C@]3(C)C(N)=O)cc2cn(C(F)F)nc12 [Example 300] | < 200 | < 200
COc1cc(C(=O)NC[C@@](O)(c2ccccc2)c2cc3c(c(-c4cc(F)c(F)cc4F)n2)OC[C@]3(C)C(N)=O)cc2cc(Cl)cnc12 [Example 198] | < 200 | < 200
COc1cc(C(=O)NCC(O)(c2cc(F)nc(F)c2)c2cc3c(c(-c4cccc(Cl)c4Cl)n2)OC[C@]3(C)C(N)=O)cc2cn(C(F)F)nc12 (stereo partly drawn) [Example 500] | < 200 | < 200
COc1cc(F)c(-c2nc([C@@](O)(CNC(=O)c3cc(OC)c4nn(C5(F)CC5)cc4c3)c3ccccc3)cc3c2OC[C@]3(C)C(N)=O)cc1F [Example 363] | < 200 | > 200
COc1cc(C(=O)NCC(O)(c2cc(F)nc(F)c2)c2cc3c(c(-c4cccc(Cl)c4Cl)n2)OC[C@]3(C)C(N)=O)cc2cn(C3CC3)nc12 (stereo partly drawn) [Example 499] | < 200 | < 200
COc1cc(C(=O)NC[C@@](O)(c2ccccc2)c2cc3c(c(-c4cc(F)c(F)cc4F)n2)OC[C@]3(C)C(N)=O)cc2oc(C3CC3)nc12 [Example 195] | < 200 | < 200
COc1cc(C(=O)NC[C@@](O)(c2cnn(C)c2)c2cc3c(c(-c4cc(Cl)c(F)cc4F)n2)OC[C@]3(C)C(N)=O)cc2cn(C3CC3)nc12 [Example 153] | > 200 | > 200
COc1cc(C(=O)NC[C@@](O)(c2ccnc(C)c2)c2cc3c(c(-c4cc(Cl)c(F)cc4F)n2)OC[C@]3(C)C(N)=O)cc2cn(C3CC3)nc12 [Example 485] | < 200 | < 200
COc1cc([C@](O)(CNC(=O)c2cc(OC)c3nn(C4CC4)cc3c2)c2cc3c(c(-c4cccc(Cl)c4Cl)n2)OC[C@]3(C)C(N)=O)cc(OC)n1 [Example 497] | < 200 | < 200
COc1cc(C(=O)NC[C@@](O)(c2ccnc(C#N)c2)c2cc3c(c(-c4cc(Cl)c(F)cc4F)n2)OC[C@]3(C)C(N)=O)cc2cn(C3CC3)nc12 [Example 501] | < 200 | < 200
C[C@]1(C(N)=O)COc2c1cc([C@@](O)(CNC(=O)c1cc(Cl)c3[nH]ncc3c1)c1ccccc1)nc2-c1cc(Cl)c(F)cc1F [Example 117] | < 200 | > 200
